# Assay results from article PMC5358875 (Journal of the American Chemical Society, 2017).
# Assays:
# TNKS2 ARC4 [1] = molecular target: T1, TNKS2 ARC4 (Homo sapiens, UniProt Q9H2K2); experiment: Direct fluorescence polarization, TNKS2 ARC4; format: binding; conditions: TAMRA-labeled peptides; n.d. = not detectable; read-out: Kd TNKS2 ARC4 (Direct FP)
# T1 construct: GST (cleaved yes); made in house; host or cells: E. coli C41(DE3)
# T1 sequence (Q9H2K2 488-649): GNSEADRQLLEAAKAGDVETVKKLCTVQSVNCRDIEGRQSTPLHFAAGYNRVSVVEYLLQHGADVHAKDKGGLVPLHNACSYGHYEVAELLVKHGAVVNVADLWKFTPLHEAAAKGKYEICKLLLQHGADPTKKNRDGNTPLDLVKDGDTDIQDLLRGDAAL
# Description: Fluorescence polarization (FP) assays were performed in 96-well half area black microplates (Corning) on a CLARIOstar microplate reader (BMG labtech) using excitation filter 540–20 nm, dichroic mirror LP 566 nm, and emission filter 590–20 nm. All peptides were dissolved in water as stock solutions. For direct FP assays, the stock concentrations of the TAMRA-labeled peptides were determined based on the 5-TAMRA absorbance at 556 nm (extinction coefficient ε = 89,000 M^–1 cm^–1) measured on a NanoDrop 2000 (Thermo Scientific) and verified by amino acid analysis (Department of Biochemistry, University of Cambridge). TNKS2 ARC4 (488–649) or TNKS1 ARC2–3 (315–662) was diluted 2-fold serially in the assay buffer (50 mM HEPES pH 7.5, 300 mM NaCl, 2 mM DTT, 0.05% (v/v) Tween 20) for a 12-point titration curve in triplicate. The diluted TAMRA-labeled peptide (20 nM, 50 μL) was mixed with the serially diluted TNKS2 ARC4 or TNKS1 ARC2–3 (40–0 μM, 50 μL) in each well and incubated for 30 min at 25 °C before the measurement. Data were analyzed on GraphPad Prism 5.0, and the dissociation constant, Kd, was determined using the following equation assuming the ratio between the concentration of the bound and that of the total TAMRA-labeled peptide is proportional to the fluorescence polarization [drawing 1] where FP is the fluorescence polarization, B is the minimum FP, T is the maximum FP, L0 is the total concentration of TAMRA-labeled peptide, P0 is the total concentration of protein, and Kd is the dissociation constant.
# AspN protease = molecular target: T2, AspN protease (Elizabethkingia meningoseptica, UniProt Q47899); experiment: in vitro; conditions: isolated enzyme
# T2 sequence (Q47899 92-443): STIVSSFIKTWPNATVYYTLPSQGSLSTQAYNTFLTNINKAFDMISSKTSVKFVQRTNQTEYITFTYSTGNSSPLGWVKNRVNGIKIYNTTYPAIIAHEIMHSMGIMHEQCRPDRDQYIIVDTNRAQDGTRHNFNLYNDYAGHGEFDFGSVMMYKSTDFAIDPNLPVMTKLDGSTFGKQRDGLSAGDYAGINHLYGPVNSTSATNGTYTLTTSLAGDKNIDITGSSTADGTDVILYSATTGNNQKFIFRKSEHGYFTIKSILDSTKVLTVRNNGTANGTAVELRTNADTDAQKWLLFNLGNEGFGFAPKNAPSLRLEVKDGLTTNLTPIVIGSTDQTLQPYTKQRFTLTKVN
# TNKS2 ARC4 [2] = molecular target: T1, TNKS2 ARC4; experiment: Isothermal titration calorimetry, TNKS2 ARC4; format: binding; conditions: unlabeled peptides and Axin proteins
# Description: (§1) All ITC experiments were performed on a MicroCal iTC200 (GE Healthcare) at 25 °C. TNKS2 ARC4 (488–649), TNKS1 ARC2–3 (315–662), and Axin1 fragments were dialyzed overnight in PBS and 0.5 mM TCEP. Unlabeled peptides were used in the experiments. The peptide was diluted from the stock solution using the same dialysis buffer, and the effect of buffer dilution was accounted for when preparing TNKS samples. TNKS2 ARC4 (160–280 μM) or TNKS1 ARC2–3 (60–150 μM) was titrated into the sample cell containing the peptide (5–15 μM) or Axin1 fragments (8–12 μM) with an initial injection of 0.2 μL over 0.4 s followed by 19 injections of 2 μL over 4 s with a spacing of 60 s, except for TNKS2 ARC4 and Axin1 fragments for which the spacing was 70 s. Control experiments were performed using the same settings as above except that the cell was filled with dialysis buffer. Data were fitted with nonlinear regression using a one-site binding model from Origin 7.0 (MicroCal, Inc.).[90]
# TNKS1 ARC2-3 = molecular target: T3, TNKS1 ARC2-3 (Homo sapiens, UniProt O95271); experiment: Isothermal titration calorimetry, TNKS1 ARC2-3; format: binding; conditions: unlabeled peptides and Axin proteins
# T3 construct: His6 (cleaved yes); made in house; host or cells: E. coli C41(DE3)
# T3 sequence (O95271 315-662): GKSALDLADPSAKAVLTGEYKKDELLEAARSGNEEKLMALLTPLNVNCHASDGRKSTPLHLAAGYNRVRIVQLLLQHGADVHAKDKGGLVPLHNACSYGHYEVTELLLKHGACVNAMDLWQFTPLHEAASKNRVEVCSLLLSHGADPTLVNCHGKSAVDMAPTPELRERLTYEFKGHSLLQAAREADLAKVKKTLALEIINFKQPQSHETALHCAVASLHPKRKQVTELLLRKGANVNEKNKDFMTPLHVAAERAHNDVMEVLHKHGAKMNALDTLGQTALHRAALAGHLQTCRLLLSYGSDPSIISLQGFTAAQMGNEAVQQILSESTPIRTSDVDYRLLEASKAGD
# Description: as §1
# [3] = system: Wnt-activated HEK 293T cells; experiment: TOPFLASH dual-luciferase reporter assay; format: cell-based; conditions: unlabeled peptides
# Description: A dual-luciferase reporter (DLR) assay in Wnt-activated HEK 293T cells was used to determine the ability of the peptides to modulate β-catenin levels and suppress Wnt transcription. […] Treatment of HEK 293T cells with an increasing concentration of unlabeled peptide cp4n2m3c-Antp (containing the penetratin sequence on the linker) led to a dose-dependent decrease in Wnt pathway reporter activity with an IC50 around 50 μM (Figure 8). […] Moreover, treatment with non-cell-penetrating peptides pep1 or cp4n2m3c had no effect on Wnt reporter activity, nor did treatment with cp4n1m3c-Antp (a cell-penetrating version of the non-binding peptide cp4n1m3c) (Table S2), thereby satisfying these specificity controls.
# HEK 293T were grown in Dulbecco’s Modified Eagles Medium (DMEM) supplemented with 10% fetal calf serum. Wnt pathway activity was induced by treating cells with 20 mM LiCl (or KCl as control) or conditioned media obtained from L-cells expressing Wnt3A for 6 h. […]
# For TOPFLASH reporter assays, 100 ng of TOPFLASH plasmid and 10 ng of CMV-Renilla plasmid (as internal control) were used to transfect cells in 24-well plates. […] Relative luciferase values were obtained from triplicate samples (from two independent experiments) by dividing the firefly luciferase values (from TOPFLASH) by the Renilla luciferase values (from CMV-renilla), and standard deviations were calculated.
"Stoichiometry (ITC), TNKS2 ARC4 (TNKS2 ARC4 [2])","Stoichiometry (ITC), TNKS1 ARC2-3 (TNKS1 ARC2-3)","Kd (TNKS1 ARC2-3; 25 °C, read-out: Kd (nM) to TNKS1 ARC2-3 (ITC)) [nM]",Compound,Kd (TNKS2 ARC4 [1]) [nM],"remaining at 4.5 h, 400 μM (AspN protease) [%]",effect on Wnt reporter activity [3]
,,,CN(C)c1ccc2c(c1)Oc1cc(N(C)C)ccc1C21OC(=O)c2cc(C(=O)NCCCCCC(=O)N[C@@H](CCCNC(=N)N)C(=O)N[C@@H](CCC(=O)O)C(=O)N[C@H]3CCn4cc(nn4)CCCc4cn(nn4)CC[C@@H](C(=O)N[C@@H](CCC(=O)O)C(N)=O)NC(=O)CNC(=O)[C@H](CC(=O)O)NC(=O)CNC3=O)ccc21 [T-cp4n2m3],600 ± 10,~100,
1.0 ± 0.004,0.9 ± 0.01,290 ± 30,Ac-REAGDGEE-NH2 [pep1],,,no effect
